Experimental data taken from paper PMC6370589 (ChemMedChem, 2018).
“Also recorded” adds a separate entry of the source. Values belong to the compound of their own block, whether it stands above or below them.

Assays:
[1] = tested on: Daoy cells; conditions: for concentration with appreciable cytotoxicity, not before 48 hours: from 48 h
[2] = in vitro; conditions: human
[3] = target: recombinant PLK1 kinase (Homo sapiens, UniProt P53350); assay: PLK1 recombinant kinase LANCE TR-FRET assay; type: biochemical
recombinant PLK1 kinase, sequence (P53350 whole entry): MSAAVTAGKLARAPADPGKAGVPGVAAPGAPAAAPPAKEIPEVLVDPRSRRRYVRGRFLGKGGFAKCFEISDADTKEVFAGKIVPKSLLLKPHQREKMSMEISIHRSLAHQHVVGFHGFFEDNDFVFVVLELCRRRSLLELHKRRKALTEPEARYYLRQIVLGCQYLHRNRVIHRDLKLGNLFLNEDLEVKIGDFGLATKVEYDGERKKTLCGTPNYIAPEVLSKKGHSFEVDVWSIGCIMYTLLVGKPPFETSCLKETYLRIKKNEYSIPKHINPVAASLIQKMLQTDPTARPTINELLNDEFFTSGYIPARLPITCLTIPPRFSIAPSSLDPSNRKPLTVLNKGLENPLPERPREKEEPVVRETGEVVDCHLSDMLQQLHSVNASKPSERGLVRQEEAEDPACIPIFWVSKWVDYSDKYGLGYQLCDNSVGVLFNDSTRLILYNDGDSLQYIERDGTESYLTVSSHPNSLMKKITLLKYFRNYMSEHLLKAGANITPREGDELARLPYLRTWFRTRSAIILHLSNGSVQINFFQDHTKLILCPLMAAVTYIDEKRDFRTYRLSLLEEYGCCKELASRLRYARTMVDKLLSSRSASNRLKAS

[4] = tested on: phosphorylated CDK1 at Tyr15; assay: pCDK1; type: cell-based; conditions: Daoy, 24 h; for change in pCDK1(Tyr15) level vs DMSO control: 220 nM, n=3; for pCDK1 ELISA dose-response: 1 μM to 62 nM, EC50 values not determinable
[5] = tested on: Daoy cells; assay: MTS cellular metabolic viability assay, Daoy; type: cell-based
[6] = tested on: advanced refractory solid tumors; conditions: Phase I, single agent; cited from earlier work
[7] = target: Src family tyrosine kinase YES1; conditions: read-out: YES1 IC50; radiolabeled ATP kinase assay; cited from earlier work
[8] = tested on: phosphorylated CDK1 at Tyr15; conditions: read-out: pCDK1 ELISA EC50; Daoy; previously determined; cited from earlier work
[9] = tested on: 8 other kinases; conditions: 1.0 μM, profile of 223 kinases; cited from earlier work
[10] = tested on: WEE1; conditions: read-out: WEE1 IC50; radiolabeled ATP kinase assay; cited from earlier work
[11] = target: recombinant WEE1 (Homo sapiens, UniProt P30291); assay: WEE1 recombinant kinase TR-FRET; type: binding
recombinant WEE1, sequence (P30291 whole entry): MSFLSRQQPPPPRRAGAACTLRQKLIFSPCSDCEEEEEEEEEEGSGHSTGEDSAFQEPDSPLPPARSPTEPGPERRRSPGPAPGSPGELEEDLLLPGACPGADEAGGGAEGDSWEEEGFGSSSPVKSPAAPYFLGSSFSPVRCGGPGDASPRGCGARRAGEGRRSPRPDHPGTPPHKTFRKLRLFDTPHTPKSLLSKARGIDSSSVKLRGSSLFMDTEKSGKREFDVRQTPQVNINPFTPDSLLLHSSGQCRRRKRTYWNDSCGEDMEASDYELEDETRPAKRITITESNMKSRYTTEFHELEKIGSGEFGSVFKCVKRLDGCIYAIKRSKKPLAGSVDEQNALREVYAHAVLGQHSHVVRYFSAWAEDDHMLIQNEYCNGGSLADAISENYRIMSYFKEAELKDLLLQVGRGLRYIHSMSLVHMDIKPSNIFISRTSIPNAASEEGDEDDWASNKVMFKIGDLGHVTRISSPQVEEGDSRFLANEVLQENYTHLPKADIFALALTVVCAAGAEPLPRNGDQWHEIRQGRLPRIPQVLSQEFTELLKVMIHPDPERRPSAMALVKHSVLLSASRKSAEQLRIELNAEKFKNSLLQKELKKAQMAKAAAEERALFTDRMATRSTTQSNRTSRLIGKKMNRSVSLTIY

[12] = tested on: ONS-76 cells; assay: MTS cellular metabolic viability assay, ONS-76; type: cell-based; conditions: ONS-76, 72 h

Compound: C=CCn1c(=O)c2cnc(Nc3ccc(CCN(C)C)cc3)nc2n1-c1cccc(C(C)(C)O)n1 [Compound 28, 2-allyl-6-((4-(2-(dimethylamino)ethyl)phenyl)amino)-1-(6-(2-hydroxypropan-2-yl)pyridin-2-yl)-1,2-dihydro-3H-pyrazolo[3,4-d]pyrimidin-3-one]
concentration with some cytotoxicity within 24 hours ([1]; 24 h): 1.2 µM | EC50 at 72 h [2]: 0.651 ± 0.016 µM | IC50 [3]: 0.27 ± 0.029 µM | change in pCDK1(Tyr15) level vs DMSO control [4]: statistically significant decrease in pCDK1 levels | pCDK1 ELISA dose-response [4]: comparable effects on pCDK1 levels

Compound: C=CCn1c(=O)c2cnc(Nc3cccc(N(C)C)c3)nc2n1-c1cccc(C(C)(C)O)n1 [Compound 25, 2-allyl-6-((3-(dimethylamino)phenyl)amino)-1-(6-(2-hydroxypropan-2-yl)pyridin-2-yl)-1,2-dihydro-3H-pyrazolo[3,4-d]pyrimidin-3-one]
change in pCDK1(Tyr15) level vs DMSO control [4]: significant increases in pCDK1 levels

IC50 [3]: 0.161 ± 0.01 µM
Compound: C=CCn1c(=O)c2cnc(Nc3ccc(OCCN(C)C)cc3)nc2n1-c1cccc(C(C)(C)O)n1 [Compound 29, 2-allyl-6-((4-(2-(dimethylamino)ethoxy)phenyl)amino)-1-(6-(2-hydroxypropan-2-yl)pyridin-2-yl)-1,2-dihydro-3H-pyrazolo[3,4-d]pyrimidin-3-one]
CellTox Green dose-response / EC50 determination ([1]; 72 h, up to 2400 nM): Sigmoidal dose-response curves were not obtained; also recorded: did not display sufficient cytotoxicity for EC50 determination | concentration with appreciable cytotoxicity, not before 48 hours [1]: > 0.3 µM | MTS % effect (activity) at 600 nM, Daoy ([5]; 72 h, 600 nM): 81% | change in pCDK1(Tyr15) level vs DMSO control [4]: statistically significant decrease in pCDK1 levels | pCDK1 ELISA dose-response [4]: comparable effects on pCDK1 levels

Compound: C=CCn1c(=O)c2cnc(Nc3ccc(N4CCN(C)CC4)cc3)nc2n1-c1cccc(C(C)(C)O)n1 [AZD1775, 2-allyl-1-(6-(2-hydroxypropan-2-yl)pyridin-2-yl)-6-((4-(4-methylpiperazin-1-yl)phenyl)amino)-1,2-dihydro-3H-pyrazolo[3,4-d]pyrimidin-3-one, reference compound]
concentration with cytotoxic effects within 24 hours ([1]; 24 h): > 0.6 µM | concentration with cytotoxic effects after 72 hours ([1]; 72 h): > 0.075 µM | dose-limiting toxicities [6]: supraventricular tachyarrhythmia and myelosuppression | IC50 [7]: 0.014 µM | EC50 at 72 h ([2]; Daoy cells): 0.188 ± 0.026 µM | EC50 [8]: 0.22 µM | IC50 [3]: 0.0776 ± 0.0093 µM | inhibition of 8 other kinases [9]: > 80% | EC50 ([5]; Homo sapiens, read-out: MTS EC50 used to set the concentration range, Daoy): 0.15 µM | IC50 [10]: 0.005 µM | change in pCDK1(Tyr15) level vs DMSO control [4]: statistically significant decrease in pCDK1 levels | pCDK1 ELISA dose-response [4]: comparable effects on pCDK1 levels

IC50 [11]: 0.19 ± 0.012 µM
Compound: C=C(C)c1cccc(-n2[nH]c(=O)c3cnc(Nc4ccc(N5CCN(C)CC5)cc4)nc32)n1 [Compound 34, 6-((4-(4-methylpiperazin-1-yl)phenyl)amino)-1-(6-(prop-1-en-2-yl)pyridin-2-yl)-1,2-dihydro-3H-pyrazolo[3,4-d]pyrimidin-3-one]

IC50 [3]: 0.394 ± 0.037 µM
Compound: C=CCn1c(=O)c2cnc(Nc3ccc(N4CCN(C)CC4)cc3)nc2n1-c1cccc(C(C)(C)O)c1 [Compound 31, 2-allyl-1-(3-(2-hydroxypropan-2-yl)phenyl)-6-((4-(4-methylpiperazin-1-yl)phenyl)amino)-1,2-dihydro-3H-pyrazolo[3,4-d]pyrimidin-3-one]
MTS % effect at 1.16 μM, ONS-76 [12]: 57% | concentration with appreciable cytotoxicity, not before 48 hours [1]: > 0.3 µM | change in pCDK1(Tyr15) level vs DMSO control [4]: did not cause a significant reduction in pCDK1 levels

Compound: C=CCn1c(=O)c2cnc(Nc3ccccc3)nc2n1-c1cccc(C(C)(C)O)n1 [Compound 24, 2-allyl-1-(6-(2-hydroxypropan-2-yl)pyridin-2-yl)-6-(phenylamino)-1,2-dihydro-3H-pyrazolo[3,4-d]pyrimidin-3-one]
change in pCDK1(Tyr15) level vs DMSO control [4]: significant increases in pCDK1 levels
